pIC50: −log10 of the molar value. Several values for one entry are separate records, joined by “and”; a condition that tells them apart may be missing. Identical values can stand only once. Like-named read-outs stand apart in the source and are kept apart here.
Key:
[1] = test system: SiHa (human cervical carcinoma); assay: MTT cell viability assay, SiHa; assay type: cell-based; details: for pIC50: Homo sapiens, SiHa, pure compounds, MTT, 48 h incubation
Method: (§1) Human prostatic adenocarcinoma (PC-3, ATCC CRL-7934), human lung adenocarcinoma (A549, ATCC CCL-185), and human cervical carcinoma (SiHa, ATCC HTB-35) cancer cell lines and normal mouse fibroblasts (L929, ATCC CRL-6364) were maintained in a humidified atmosphere with 5% CO2 at 37 °C, and grown as a monolayer culture in Dulbecco’s Modified Eagle Medium (DMEM) medium with 10% (v/v) fetal bovine serum (FBS), 1% (v/v) penicillin, and 1% (v/v) streptomycin. The anti-proliferative effects of G. monspessulana extracts and isolated compounds were measured according to a reported method. Cell suspension (100 µL, 5 × 10^3 cells/well) was inoculated in 96-well plates and cultured for 24 h. After that, the culture medium was replaced with a serum-free medium (100 µL) containing different concentrations of treatments (0.8–500 µg/mL for extracts and 0.16–100 µg/mL for pure compounds). Extracts and compounds were measured in triplicate. A PBS-containing free medium was used as a blank, 1% (w/v) bovine serum albumin-amended medium as negative control (100% survival), and curcumin (0.16–100 µg/mL) was used as the positive control. After 48 h of incubation, the cell viability was assessed by adding MTT (10 µL, 5 mg/mL) to each well, and the plates were subsequently incubated under 5% CO2 at 37 °C for 3 h. Formazan crystals were dissolved with 100 µL of DMSO. Absorbance was measured at 570 nm using a Varioskan LUX 96-well plate reader (Thermo Fisher Scientific, Waltham, MA, USA). The anti-proliferative effects were expressed as half-maximal inhibitory concentration (IC50) in µg/mL (extracts) and µM (compounds). The IC50 values were calculated from the dose-response curves through non-linear regression using GraphPad 5.0 (GraphPad Software, San Diego, CA, USA).

[2] = test system: PC-3 (human prostate adenocarcinoma); assay: MTT cell viability assay, PC-3; assay type: cell-based; details: for pIC50: pure compounds, MTT, 48 h incubation
Method: as §1

[3] = test system: L929 (normal mouse fibroblasts); assay: MTT cell viability assay, L929 fibroblasts; assay type: cell-based; details: 48 h incubation; for pIC50: Mus musculus, L929, pure compounds; for IC50 L929: pure compounds
Method: as §1

[4] = test system: A549 (human lung carcinoma); assay: MTT cell viability assay, A549; assay type: cell-based; details: for pIC50: Homo sapiens, A549, pure compounds, MTT, 48 h incubation
Method: as §1

[5] = test system: MCF-7 (human breast cancer cell line); set-up: method as in PMID 30467293; details: vs cytisine and (−)-maackiain; cited from earlier work
[6] = test system: MDA-MB-231 (human breast cancer cell line); set-up: method as in PMID 30467293; details: vs cytisine and (−)-maackiain; cited from earlier work
[7] = test system: SMMC-7721 (hepatocellular carcinoma) cells; set-up: method as in PMID 29330507; details: cited from earlier work
[8] = test system: HL-60 cell line; set-up: method as in PMID 16887297; details: cytotoxic activity; cited from earlier work
[9] = test system: HL-60 cell line; set-up: method as in PMID 23850732; details: cited from earlier work
[10] = test system: MOLT-4 cell line; set-up: method as in PMID 23850732; details: cited from earlier work
[11] = test system: K-562 cell line; set-up: method as in PMID 23850732; details: cited from earlier work
[12] = test system: various cancer cell lines (KB, P-388, HL-60, K-562, MOLT-4, H2108, H1299, MRC-5, 786-O, Caki1, SN12C, SH-SY5Y, A375, SK-MEL-1, Eca109, KYSE30, HCT-116, SW480); set-up: method as in PMID 31551770; details: cytotoxicity; cited from earlier work
[13] = test system: PC-3; set-up: method as in doi:10.1590/S0103-50532012000300015; details: cited from earlier work
[14] = test system: FaDu cell line; details: cited from earlier work
[15] = test system: MCF-7 cell line; details: cited from earlier work
[16] = test system: HepG2 (human hepatocellular carcinoma) cell line; details: cited from earlier work
[17] = test system: A549 cell line; details: read-out: IC50 A549; cytotoxic through apoptosis induction; cited from earlier work
[18] = test system: MDA-MB cell line; details: cited from earlier work

| Molecule | pIC50 [1] | pIC50 ([2]; Homo sapiens, 48 h) | pIC50 [3] | pIC50 [4] | further results |
| --- | --- | --- | --- | --- | --- |
| O=C1[C@@H]2C[C@H](CN3CCCC[C@@H]23)[C@H]2CCCCN12 [Compound 3, (+)-aphylline] | < 3.39 | 4.67 | 4.65 | < 3.39 | – |
| O=C1CCC=C2C3CC(CN12)C1CCCCN1C3 (single isomer, unassigned; (+)) [Compound 7, (+)-5,6-dehydrolupanine] | < 3.39 | 4.50 | 4.07 | < 3.39 | – |
| tonkinensine B | – | – | – | – | fold better activity than respective precursors, MCF-7 [5]: 2–3 fold; fold better activity than respective precursors, MDA-MB-231 [6]: 2–3 fold |
| CN1CC2CC(C1)c1cccc(=O)n1C2 (single isomer, unassigned; (-)) [Compound 5, (–)-N-methylcytisine] | < 3.31 | 4.55 | 4.04 | 4.44 | proliferation of SMMC-7721 cells [7]: can inhibit the proliferation |
| COc1cc(/C=C/C(=O)CC(=O)/C=C/c2ccc(O)c(OC)c2)ccc1O [curcumin, reference compound] | 5.19 | 5.02 | 3.98 | 5.08 | – |
| O=c1cccc2n1C[C@H]1C[C@@H]2CN2CCCC[C@H]12 [Compound 4, (–)-anagyrine] | < 3.39 | – | 4.44 | < 3.39 | pIC50 ([2]; Homo sapiens): 4.47; pIC50 [8]: 4.74 |
| CC(C)=CCc1c(O)cc2occ(-c3ccc(O)cc3)c(=O)c2c1O [Compound 6, wighteone] | < 3.53 | 4.46 | < 3.53 | < 3.53 | IC50 L929 [3]: inactive; pIC50 [9]: < 4.15; pIC50 [10]: < 4.15; pIC50 [11]: < 4.15 |
| CC1(C)C=Cc2c(cc3occ(-c4ccc(O)cc4)c(=O)c3c2O)O1 [Compound 2, alpinumisoflavone] | 4.71 | > 4.73 | < 3.53 | < 3.52 | pIC50 [2]: 4.73; pIC50 [12]: > 4.15; pIC50 [13]: > 4.52; IC50 L929 [3]: inactive |
| O=c1cccc2n1C[C@@H]1CNC[C@H]2C1 [Compound 1, (–)-cytisine] | 3.45 | > 4.73 | 3.99 | 4.37 | pIC50 [2]: 4.80; effect on FaDu cell line [14]: not affected; effect on MCF-7 cell line [15]: not affected; effect on HepG2 cell line [16]: inducing mitochondrial-mediated apoptosis; pIC50 [17]: 4.57; effect on MDA-MB cell line [18]: not affected |
| CC1(C)C=Cc2c(cc3occ(-c4ccc(O)c(CN5C[C@@H]6C[C@H](C5)c5cccc(=O)n5C6)c4)c(=O)c3c2O)O1 [Compound 8, (–)-3′-(N-cytisine)methylalpinumisoflavone] | 4.76 | – | 3.41 | 4.33 | selectivity index (SI = IC50 normal cells/IC50 cancer cells) SiHa ([1]; L929 vs SiHa): 22.0; pIC50 ([2]; Homo sapiens): 5.00; selectivity index (SI = IC50 normal cells/IC50 cancer cells) PC-3 ([2]; L929 vs PC-3): 38.1 and > 30; selectivity index (SI = IC50 normal cells/IC50 cancer cells) A549 ([4]; L929 vs A549): 8.2 |

Reference: PMC9268615, “Identification of Anti-Proliferative Compounds from Genista monspessulana Seeds through Covariate-Based Integration of Chemical Fingerprints and Bioactivity Datasets” (Molecules, 2022)
